Results published in patent US5880147A, “Amide derivatives having ACAT inhibitory activity, their preparation and their therapeutic and prohylactic use” (Sankyo Company, Limited, priority 1995, dated 1999).

molecular target: T1, ACAT (acyl-CoA: cholesterol acyl transferase) (Mus musculus, UniProt Q61263); experiment: Inhibition of ACAT in M.phi. (mouse peritoneal macrophages); assay type: cell-based, mouse (female DDY mice); conditions: β-VLDL 50 μg cholesterol/ml, [14C]oleate-albumin, 37° C., 3 hours
T1 construct: endogenous in cells; host or cells: primary adherent peritoneal macrophages from unstimulated female DDY mice
T1 sequence (Q61263 1-540): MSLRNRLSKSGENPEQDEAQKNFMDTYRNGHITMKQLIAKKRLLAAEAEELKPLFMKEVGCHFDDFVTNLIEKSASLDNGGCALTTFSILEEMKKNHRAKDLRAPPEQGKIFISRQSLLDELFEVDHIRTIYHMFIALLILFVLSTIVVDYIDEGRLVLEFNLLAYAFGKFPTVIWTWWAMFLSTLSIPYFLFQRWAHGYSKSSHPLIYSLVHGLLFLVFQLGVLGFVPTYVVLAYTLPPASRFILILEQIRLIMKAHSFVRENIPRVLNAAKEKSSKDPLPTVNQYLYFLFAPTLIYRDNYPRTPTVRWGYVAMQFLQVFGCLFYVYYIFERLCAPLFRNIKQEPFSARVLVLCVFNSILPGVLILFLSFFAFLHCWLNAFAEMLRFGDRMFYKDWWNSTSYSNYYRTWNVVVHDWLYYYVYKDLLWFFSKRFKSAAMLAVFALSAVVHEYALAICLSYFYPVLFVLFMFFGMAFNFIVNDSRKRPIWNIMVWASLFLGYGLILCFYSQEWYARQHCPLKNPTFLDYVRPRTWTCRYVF
Experimental: Blood was obtained [using the anticoagulant ethylene diamine tetraacetic acid (5 mM)] from Japanese White rabbits which had been fed a 2% w/w cholesterol diet for 2 weeks and then fasted overnight prior to removing the blood. β-VLDL (d<1.006 g/ml) was isolated by ultracentrifugation from the plasma according to the method of Hatch and Lees [Hatch, F T. and Lees, R S.,Adv. Lipid Res., 6 1-68 (1968)] and dialyzed at 4° C. against 10 mM of a sodium phosphate buffer (pH 7.4) containing 150 mM sodium chloride.
Peritoneal cells were harvested from unstimulated female DDY mice (body weight 20-30 g) in phosphate buffer saline (PBS) as described by Edelson and Cohn [Edelson, P J. and Cohn, Z A.,1976, "In Vitro Methods in Cell-Mediated and Tumor Immunity", editors Bloon, B R and David, J R., (Academic Press, New York), 330-340.]. The fluid from the mice was pooled and the cells were collected by centrifugation at 400×g for 10 minutes at 4° C., and washed once with PBS. The cells were resuspended in Dulbecco's modified Eagle's medium (DMEM) containing 10% (vol/vol) fetal calf serum (FCS), penicillin (100 units/ml), and streptomycin (100 μg/ml) at a final concentration of 3×10^6 cells per ml. Aliquots (1 ml) of this cell suspension were dispersed onto plastic petri dishes (35×10 mm) and then incubated in a CO2 incubator (5% CO2 /95% air) at 37° C. for 2 hours. Each dish was washed twice with PBS without serum to remove nonadherent cells.
Inhibition of ACAT in M.phi. was determined according to the method described by Brown et al. Brown, M S., Goldstein J L., Krieger, M., Ho, Y K. and Anderson, R G W. (1979) J. Cell Biol., 82, 597-613.]. Cholesterol reacylation was initiated by adding β-VLDL (final concentration 50 μg cholesterol/ml), [^14 C]oleate-albumin complex (final concentrations: 0.2 mM oleate and 0.6 mg/ml albumin) and a test compound dissolved in ethanol into the M.phi. monolayer, and the preparation was incubated at 37° C. for 3 hours in a CO2 incubator. Cells were washed three times with PBS and cellular lipid was extracted with 1 ml hexane/isopropanol (3:2 vol/vol). A lipid extract was evaporated to dryness in a stream of nitrogen. Cholesterol [^14 C]oleated was seperated by thin layer chromatography through silica gel using an 85:15:1 by volume mixture of hexane, diethyl ether and acetic acid as developing solvents. The ACAT activity in M.phi. was determined by measuring the radioactivity and an inhibition rate (%) was calculated by comparing a control activity with those of the test compound at given concentrations. The results are shown in the following Table, in which the compounds of the present invention are identified by the number of the Example given hereafter in which they are prepared.

SMILES	IC50 [µM]
CCCCCC(CC(=O)Nc1cc(C(=O)NC)ccc1C(C)(C)C)c1ccc(OC)cc1OC (stereo not drawn) [Example 1, N-(2-t-Butyl-5-N'-methylcarbamoylphenyl)-3-(2,4-dimethoxphenyl)octanamide]	0.0597
CCCCCC(CC(=O)Nc1cc(C(N)=O)ccc1C(C)(C)C)c1ccc(OC)cc1OC (stereo not drawn) [Example 2, N-(2-t-Butyl-5-carbamoylphenyl)-3-(2,4-dimethoxyphenyl)octanamide]	0.0418
CCCCCC(CC(=O)Nc1cc(CC(=O)NC)ccc1C(C)(C)C)c1ccc(OC)cc1OC (stereo not drawn) [Example 3]	0.0311
CCCCCC(CC(=O)Nc1cc(COC(N)=O)ccc1C(C)(C)C)c1ccc(OC)cc1OC (stereo not drawn) [Example 5, N-[2-t-Bu=l-5-(carbamoyloxymethyl)phenyl]-3-(2,4-dimethoxyphenyl)octanamide]	0.0681
CCCCCC(CC(=O)Nc1cc(C(=O)NC)ccc1C(C)(C)C)c1cc(C(=O)NC)c(OC)cc1OC (stereo not drawn) [Example 35, N-(2-t-Butyl-5-N'-methylcarbamoylphenyl)-3-(2,4-dimethoxy-5-N"-methylcarbamoylphenyl)octanamide]	0.0628
CCCCCC(CC(=O)Nc1cc(CN2C(=O)c3ccccc3C2=O)ccc1C(C)(C)C)c1cccc2c1OCCO2 (stereo not drawn) [Example 142, N-[2-t-Butyl-5-(phthalimidomethyl)phenyl]-3-(2,3-ethylenedioxyphenyl)octanamide]	0.0352
CCCCCC(CC(=O)Nc1cc(CCC(=O)NC)ccc1C(C)(C)C)c1cc(OC)c(OC)cc1OC (stereo not drawn) [Example 186, N-[2-t-Butyl-5-(3-methylamino-3-oxopropyl)phenyl]-3-(2,4,5-trimethoxyphenyl)octanamide]	0.0797

Stronger by IC50, values ahead:

IC50 [µM]	SMILES
0.00597	CCCCCC(CC(=O)Nc1cc(CC(N)=O)ccc1C(C)(C)C)c1ccc(OC)cc1OC (stereo not drawn) [Example 4, N-[2-t-Butyl-5-(carbamoylmethyl)phenyl]-3-(2,4-dimethoxyphenyl)octanamide]
0.00976	CCCCCC(CC(=O)Nc1cc(CNS(=O)(=O)CC)ccc1C(C)(C)C)c1ccc(OC)cc1OC (stereo not drawn) [Example 11, N-[2-t-Butyl-5-(ethylsulfonylaminomethyl)phenyl]-3-(2,4-dimethoxyphenyl)octanamide]
0.0288	CCCCCC(CC(=O)Nc1cc(CC#N)ccc1C(C)(C)C)c1ccc(OC)cc1OC (stereo not drawn) [Example 19, N-(2-t-Butyl-5-cyanomethylphenyl)-3-(2,4-dimethoxyphenyl)octanamide]
0.0106	CCCCCC(CC(=O)Nc1cc(CNC(=O)N(C)C)ccc1C(C)(C)C)c1ccc(OC)cc1OC (stereo not drawn) [Example 23, N-[2-t-Butyl-5-(N',N'-dimethylaminocarbonylaminomethyl)phenyl]-3-(2,4-dimethoxyphenyl)octanamide]
0.0235	CCCCCCC(CC(=O)Nc1cc(C(N)=O)ccc1C(C)(C)C)c1ccc(OC)cc1OC (stereo not drawn) [Example 44, N-(2-t-Butyl-5-carbamoylphenyl)-3-(2,4-dimethoxyphenyl)nonanamide]
0.0299	CCCCCC(CC(=O)Nc1cc(C(=O)NC)ccc1C(C)(C)C)c1ccc(OCC(=O)NCCCC)cc1OC (stereo not drawn) [Example 64, N-(2-t-Butyl-5-N'-methylcarbamoylphenyl)-3-(4-N"-butylcarbamoylmethloxy-2-methoxyphenyl)octanamide]
0.0173	CCCCCC(CC(=O)Nc1cc(C(=O)NC(=O)C(C)C)ccc1C(C)(C)C)c1ccc(OC)cc1OC (stereo not drawn) [Example 131, N-[2-t-Butyl-5-(2-methylpropanoyl)aminocarbonylphenyl)-3-(2,4-dimethoxyphenyl]octanamide]
0.00965	CCCCCC(CC(=O)Nc1cc(C(=O)NC(=O)c2cccnc2)ccc1C(C)(C)C)c1ccc(OC)cc1OC (stereo not drawn) [Example 136, N-{2-t-Butyl-5-[(3-pyridyl)carbonlaminocarbonyl]phenyl}-3-(2,4-dimethoxyphenyl)octanamide]
0.018	CCCCCC(CC(=O)Nc1cc(CNC(=O)c2cccnc2)ccc1C(C)(C)C)c1ccc(OC)cc1OC (stereo not drawn) [Example 158, N-[2-t-Butyl-5-(N'-3-pyridylcarbonylaminomethyl)phenyl]-3-(2,4-dimethoxyphenyl)octanamide]
0.00137	CCCCCC(CC(=O)Nc1cc(C(=O)Nc2ccccn2)ccc1C(C)(C)C)c1c(OC)cccc1OC (stereo not drawn) [Example 165, N-{2-t-Butyl-5-[N-(2-pyridyl)carbamoyl]phenyl}-3-(2,6-dimethoxyphenyl)octanamide]
0.0176	CCCCCC(CC(=O)Nc1cc(CNC(=O)NC(C)C)ccc1C(C)(C)C)c1cccc2c1OCCO2 (stereo not drawn) [Example 173, N-[2-t-Butyl-5-(N'-isopropylureidomethyl)phenyl]-3-(2,3-ethylenedioxyphenyl)octanamide]
